Measured values as given in US11395867B2, “Degradable removable implant for the sustained release of an active compound” (Janssen Sciences Ireland Unlimited Company, priority 2009, dated 2022).
Values joined by “and” are separate entries in the source; they are usually repeats but may differ in a detail not shown here. Identical values can stand only once.

Legend:
[1] = In vivo testing of laser drilled melt extruded tube containing two sets of microparticles formulated with F108, plasma concentrations; set-up: species or system Sprague-Dawley rats; conditions: rat, subcutaneous laser drilled extruded tube implant, TMC278 109 mg/kg, compound 1 78 mg/kg, individual animals 1-4
Procedure: The laser drilled melt extruded tube was prepared as described above in example 10. The microparticles were prepared by the spinning disc method using a 3% (w/w) polymer/acetone solution. Two sets of microparticles were prepared. The target composition of one set was 70% (w/w) TMC278, 20% (w/w) PLGA 50/50 (Lakeshore Biomaterials IVHFIP=0.79 dl/g), and 10% (w/w) F108 (BASF). The target composition of the other set of microparticles was 70% (w/w) compound 1, 20% (w/w) PLGA 50/50 (Lakeshore Biomaterials IVHFIP=0.18 dl/g), and 10% (w/w) F108. The F108 was added to the polymer solution.
The size range of the microparticles was determined by randomly selecting a sample of microparticles and placing them on the stage of an optical microscope and using a ruler to measure the various sizes of the microparticles in the randomly selected sample. The size range of the TMC278 and compound 1 microparticles was 10-100 microns and 20-100 microns, respectively. Microparticles were mixed as described in example 9. Approximately 133 mg of the microparticle mixture was introduced into tubes using a spatula to transfer the contents.
The prepared tubes were implanted into the subcutaneous space on the back of four male Sprague-Dawley rats weighing between 250-350 grams. The dose of TMC278 and compound 1 was 109 mg/kg and 78 mg/kg, respectively. The tail vein was sampled at pre-determined time points. Blood samples were immediately centrifuged to extract the plasma, plasma was analyzed for compound 1 and TMC278 by LC/MS/MS. The lower limit of quantitation for TMC278 and compound 1 was 0.4 ng/ml and 2 ng/ml, respectively.

[2] = In vivo testing of laser drilled melt extruded tube containing two sets of microparticles, plasma concentrations; conditions: rat, subcutaneous laser drilled extruded tube implant, TMC278 139 mg/kg, compound 1 64 mg/kg, individual animals 1-4
Procedure: Tubes with inner diameter of 4.5 mm were extruded from polydioxanone (IVHFIP=1.99 dl/g) using a ¾ inch single screw extruder fitted with a tube die. The dimensions of the tube were monitored using an in-line laser diameter measuring system and maintained using a puller. Following the extrusion the tubes were laser drilled. In preparation for the laser drilling a mask design was prepared that located the holes 260 microns apart from one another. Scanning electron microscopy was used to size the inner and outer diameter of the holes. […] The microparticles were prepared as described in Example 9. Approximately 133 mg of the microparticle mixture was introduced into the tubes.
(§1) The prepared tubes were implanted into the subcutaneous space on the back of four male Sprague-Dawley rats weighing between 250-350 grams. The dose of TMC278 was 139 mg/kg and the dose of compound 1 was 64 mg/kg. The tail vein was sampled at pre-determined time points. Blood samples were immediately centrifuged to extract the plasma, and plasma was analyzed for compound 1 and TMC278 by LC/MS/MS. The lower limit of quantitation for TMC278 and compound 1 was 0.4 ng/ml and 2.0 ng/ml, respectively.

[3] = In vivo testing of electrostatically spun tube containing two sets of microparticles, plasma concentrations; set-up: species or system Sprague-Dawley rats; conditions: rat, subcutaneous electrospun tube implant, TMC278 139 mg/kg, compound 1 64 mg/kg, individual animals 1-4
Procedure: Tubes were electrostatically spun from a 100 mg/ml polydioxanone (IVHFIP=1.99 dl/g) hexafluoroisopropanol solution. A 4 mm mandrel was used to provide a consistent inner diameter of 4 mm. The rotational speed of the mandrel was 400 rpm, the charging voltage range was 20/−10 kV, and the pump flow rate was 10 ml/hour. The resulting wall thickness was 500 microns. Fiber diameters were 1-2 microns and the average pore size formed from the network of fibers was 20 microns as determined by Scanning Electron Microscopy.
The microparticles were prepared by the spinning disc method using a polymer/acetone solution with a concentration ranging from 3-4% (w/w). Two sets of microparticles were prepared. The target composition of one set was 70% (w/w) TMC278 and 30% (w/w) PLGA 50/50 (Lakeshore Biomaterials IVHFIP=0.79 dl/g). The target composition of the other set of microparticles was 70% (w/w) of compound 1 (=compound 14 of WO01/25240) and 30% (w/w) PLGA 50/50 (Lakeshore Biomaterials IVHFIP=0.18 dl/g). This compound 1 has the following structure and will be referred to hereinafter as compound 1:
Approximately 133 mg of the microparticle mixture was introduced into the electrostatically prepared tubes using a spatula.
as §1, with “plasma,” for “plasma, and”, “quantitation was 0.4 ng/ml and 2 ng/ml” for “quantitation”, “1,” for “1 was 0.4 ng/ml and 2.0 ng/ml,”

SMILES: CC(C)CN(C[C@@H](O)[C@H](Cc1ccccc1)NC(=O)O[C@H]1CO[C@H]2OCC[C@H]21)S(=O)(=O)c1ccc2c(c1)OCO2 [compound 1]
- plasma concentration ([1]; 3 hour): 59.1 ng/mL and 26.9 ng/mL and 39.2 ng/mL and 17.3 ng/mL
- plasma concentration ([1]; 1 day): 6.13 ng/mL and 2.54 ng/mL and 4.36 ng/mL and 2.98 ng/mL
- plasma concentration ([1]; 3 day): <2 ng/mL
- plasma concentration ([1]; 7 day): 2.89 ng/ml and <2 ng/ml (2×)
- plasma concentration ([1]; 14 day): 8.25 ng/ml and <2 ng/ml (2×) and 6.27 ng/ml
- plasma concentration ([1]; 28 day): 22.1 ng/mL and 6.03 ng/mL and 12.3 ng/mL and 16.3 ng/mL
- plasma concentration ([1]; 35 day): 13.1 ng/mL and 7.25 ng/mL and 10.7 ng/mL and 15.4 ng/mL
- concentration at 3 day ([1]; male, Sprague-Dawley, plasma, 3 day): 3.36 ng/mL
- concentration at 7 day ([1]; male, Sprague-Dawley, plasma, 7 day): < 2 ng/mL
- plasma concentration ([2]; 3 hour): 2.88 ng/mL and 16.4 ng/mL and 27.0 ng/mL and 16.5 ng/mL
- plasma concentration ([2]; 1 day): <2 ng/mL and 4.20 ng/mL and 9.25 ng/mL and 3.71 ng/mL
- plasma concentration ([2]; 3 day): <2 ng/ml (2×) and 3.35 ng/ml and 6.06 ng/ml
- plasma concentration ([2]; 7 day): 3.44 ng/mL and 3.13 ng/mL and <2 ng/mL
- plasma concentration ([2]; 14 day): 2.70 ng/mL and 2.26 ng/mL and 3.66 ng/mL
- plasma concentration ([2]; 28 day): <2 ng/mL and 4.32 ng/mL and 13.0 ng/mL and 4.30 ng/mL
- plasma concentration ([2]; 35 day): <2 ng/mL and 3.56 ng/mL and 13.0 ng/mL and 2.57 ng/mL
- concentration at 7 day ([2]; male, in vivo, 7 day): < 2 ng/mL
- concentration at 14 day ([2]; male, in vivo, 14 day): < 2 ng/mL
- plasma concentration ([3]; 3 hour): 2.37 ng/mL and 4.08 ng/mL and 4.46 ng/mL
- plasma concentration ([3]; 1 day): 12.6 ng/mL and 9.95 ng/mL and 10.5 ng/mL
- plasma concentration ([3]; 3 day): 15.1 ng/mL and 14.2 ng/mL and 15.9 ng/mL
- plasma concentration ([3]; 7 day): 13.6 ng/mL and 13.2 ng/mL and 13.0 ng/mL
- plasma concentration ([3]; 14 day): 7.17 ng/mL and 12.7 ng/mL and 16.6 ng/mL and 9.89 ng/mL
- plasma concentration ([3]; 28 day): 6.07 ng/mL and 8.86 ng/mL and 12.4 ng/mL and 10.5 ng/mL
- plasma concentration ([3]; 35 day): 5.75 ng/mL and 12.0 ng/mL and 20.0 ng/mL and 11.6 ng/mL
- concentration at 3 h ([3]; male, Sprague-Dawley, plasma, subcutaneous, 3 hour): 3.93 ng/mL
- concentration at 1 day ([3]; male, Sprague-Dawley, plasma, subcutaneous, 1 day): 6.39 ng/mL
- concentration at 3 day ([3]; male, Sprague-Dawley, plasma, subcutaneous, 3 day): 10 ng/mL
- concentration at 7 day ([3]; male, Sprague-Dawley, plasma, subcutaneous, 7 day): 9.95 ng/mL
